Assay [1] has as its target type 2 MAP (Homo sapiens, UniProt P50579). Put plainly: Coupled MAP/dipeptidyl peptidase IV assay, release of p-nitroanilide at 405 nm, type 2 MAP inhibition. It is filed as biochemical. How it is done: (§1) MAP activity was next determined by monitoring the release of p-nitroanilide in a microtiter format. Purified type 1 MAP or type 2 MAP (0.6 μg) and/or 0.001 unit of dipeptidyl peptidase IV was added in 47 μl of buffer H (10 mM Hepes, pH 7.4, 10% glycerol), containing 0.1 M KCl and 0.1 mM of Co^2+ in wells of a 96-well microtiter plate. After incubating at 37° C. for 5 min, 2 mM of Met-Gly-Pro-p-nitroanilide was added to the mixture to start the reaction. A microtiter plate reader, set at 405 nm to detect released p-nitroanilide, was used to record the progress of the reactions. […] These curves are highly reproducible and linear, with correlation coefficients (r^2)>0.98.
(§2) After incubating the inhibitor with MAP solutions at 37° C. for 10 min, 2 mM of Met-Gly-Pro-p-nitroanilide was added to start the reaction, and the release of p-nitroanilide was monitored with a microtiter plate reader at 405 nm as described above. The effect of fumigillin on dipeptidyl peptidase IV activity was also tested by using Gly-Pro-p-nitroanilide as the substrate.

Assay [2] addresses type 1 MAP (Saccharomyces cerevisiae, UniProt Q01662). Kind of assay: Coupled MAP/dipeptidyl peptidase IV assay, release of p-nitroanilide at 405 nm, type 1 MAP inhibition. It is filed as biochemical, yeast. As to the method: as §1, §2
For assay [3], the target named is dipeptidyl peptidase IV (Homo sapiens, UniProt P27487). Kind of assay: Dipeptidyl peptidase IV control assay with Gly-Pro-p-nitroanilide as substrate. Type of assay: biochemical. How it is done: as §1, §2
The mark [4] stands for this setting: FIG. 3 legend, dipeptidyl peptidase IV and Met-Gly-Pro-p-nitroanilide, no concentration stated.

Sequence of type 1 MAP (Q01662 whole entry): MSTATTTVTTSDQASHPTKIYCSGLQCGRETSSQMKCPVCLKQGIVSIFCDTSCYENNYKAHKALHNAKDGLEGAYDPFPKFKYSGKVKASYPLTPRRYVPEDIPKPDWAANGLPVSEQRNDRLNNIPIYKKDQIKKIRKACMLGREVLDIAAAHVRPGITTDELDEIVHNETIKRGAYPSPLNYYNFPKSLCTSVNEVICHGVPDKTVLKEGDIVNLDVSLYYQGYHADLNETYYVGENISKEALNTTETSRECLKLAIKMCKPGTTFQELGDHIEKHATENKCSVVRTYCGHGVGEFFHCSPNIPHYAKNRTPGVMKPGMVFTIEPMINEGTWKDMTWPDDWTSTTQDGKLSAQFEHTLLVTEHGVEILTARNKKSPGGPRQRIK
Sequence of type 2 MAP (P50579 whole entry): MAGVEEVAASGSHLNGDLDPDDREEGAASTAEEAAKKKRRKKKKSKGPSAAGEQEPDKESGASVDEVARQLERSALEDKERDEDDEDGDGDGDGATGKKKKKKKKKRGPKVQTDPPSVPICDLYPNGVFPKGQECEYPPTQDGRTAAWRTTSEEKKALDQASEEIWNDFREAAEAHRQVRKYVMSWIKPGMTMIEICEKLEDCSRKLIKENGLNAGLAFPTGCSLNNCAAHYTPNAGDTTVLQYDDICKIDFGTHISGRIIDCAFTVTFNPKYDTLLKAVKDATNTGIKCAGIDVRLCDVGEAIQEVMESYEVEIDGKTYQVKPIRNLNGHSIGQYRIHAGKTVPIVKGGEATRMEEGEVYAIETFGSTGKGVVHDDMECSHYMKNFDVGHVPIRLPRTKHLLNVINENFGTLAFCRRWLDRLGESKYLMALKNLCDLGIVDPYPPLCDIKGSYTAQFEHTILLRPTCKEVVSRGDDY
Sequence of dipeptidyl peptidase IV (P27487 whole entry, species assumed): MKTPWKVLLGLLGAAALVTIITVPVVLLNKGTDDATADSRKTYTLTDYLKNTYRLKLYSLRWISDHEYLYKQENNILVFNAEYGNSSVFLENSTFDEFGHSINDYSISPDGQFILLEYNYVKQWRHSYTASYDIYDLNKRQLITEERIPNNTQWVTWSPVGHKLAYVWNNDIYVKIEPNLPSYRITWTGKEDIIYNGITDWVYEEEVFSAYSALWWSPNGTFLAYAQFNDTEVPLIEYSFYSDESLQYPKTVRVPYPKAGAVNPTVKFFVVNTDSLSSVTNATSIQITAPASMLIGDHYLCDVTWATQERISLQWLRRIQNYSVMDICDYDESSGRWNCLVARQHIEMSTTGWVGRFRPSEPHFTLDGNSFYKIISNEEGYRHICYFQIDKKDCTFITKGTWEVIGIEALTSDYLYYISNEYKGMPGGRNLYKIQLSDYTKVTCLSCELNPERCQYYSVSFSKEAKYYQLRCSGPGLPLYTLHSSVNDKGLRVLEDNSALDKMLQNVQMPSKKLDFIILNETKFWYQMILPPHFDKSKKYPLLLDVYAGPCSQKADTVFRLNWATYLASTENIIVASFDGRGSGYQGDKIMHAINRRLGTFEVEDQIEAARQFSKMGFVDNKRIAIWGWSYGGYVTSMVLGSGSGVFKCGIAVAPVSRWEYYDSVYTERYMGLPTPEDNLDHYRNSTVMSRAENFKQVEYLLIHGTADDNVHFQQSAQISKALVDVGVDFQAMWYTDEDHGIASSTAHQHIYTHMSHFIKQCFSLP

On to `CO[C@@H]1[C@H](OC(=O)/C=C/C=C/C=C/C=C/C(=O)O)CC[C@]2(CO2)[C@H]1[C@@]1(C)O[C@@H]1CC=C(C)C` [fumagillin], for which, in assay [1] (20 nM inhibitor, 10 min preincubation at 37° C., 2 mM Met-Gly-Pro-p-nitroanilide, FIG. 3), the “type 2 MAP activity” value was “completely inhibited”. In assay [1] (setting [4]), the “release of p-nitroanilide when type 2 MAP was used” value was “strongly inhibited”. The “type 1 MAP activity” value in assay [2] (50 nM inhibitor, 10 min preincubation at 37° C., 2 mM Met-Gly-Pro-p-nitroanilide, FIG. 3) was “remained unaffected”. Further, the “release of p-nitroanilide when type 1 MAP was used” value in assay [2] (setting [4]) is “not”. The “dipeptidyl peptidase IV activity” value in assay [3] (50 nM inhibitor, Gly-Pro-p-nitroanilide as substrate, FIG. 3) was “remained unaffected”. In assay [3] (FIG. 3 legend, no concentration stated), the “release of p-nitroanilide when dipeptidyl peptidase IV was used with Gly-Pro-p-nitroanilide” value is on record as “not”.
